Data taken from patent US20260022142A1, “MACROCYCLIC IMMUNOMODULATORS” (Bristol-Myers Squibb Company, priority 2022, published 2026).
Numbered stars: 1 amine (or outer) side, 2 acyl side, 3 side chain; on linkers, the order of the positions; unused ones are H or OH. Bridge positions count the residues as written; N and C are the ends. Square brackets hold non-standard residues; d marks the D form. Peptide text beside a SMILES is read from it. * marks the point of attachment. Phe(4-COOH) = N[C@@H](Cc1ccc(C(=O)O)cc1)C(=O)O; Bip = N[C@@H](Cc1ccc(-c2ccccc2)cc1)C(=O)O; Phe(3-Me) = Cc1cccc(C[C@H](N)C(=O)O)c1; X5 = CC(C)(CCN)[C@H](N[*:1])C(=O)[*:2]; Abu(3S-NH2) = C[C@H](N)[C@H](N)C(=O)O; NH(CH2)12COOH = O=C(O)CCCCCCCCCCCCN*; Val(3-OH) = CC(C)(O)[C@H](N)C(=O)O; 4Pal = N[C@@H](Cc1ccncc1)C(=O)O; 2Thi = N[C@@H](Cc1cccs1)C(=O)O; Cha = N[C@@H](CC1CCCCC1)C(=O)O; Cba = N[C@@H](CC1CCC1)C(=O)O; Carboxymethyl = O=C(O)C*; Orn = NCCC[C@H](N)C(=O)O; Aun = NCCCCCCCCCCC(=O)O; Dab = NCC[C@H](N)C(=O)O; Nva = CCC[C@H](N)C(=O)O; Dap = NC[C@H](N)C(=O)O; Ac3c = NC1(C(=O)O)CC1

Target: T1, PD-1/PD-L1 interaction (PE-labeled human PD-L1-Ig binding to Jurkat cell line over-expressing human PD-1) (Homo sapiens, UniProt Q15116)
T1 construct: expressed in transfected cells; host or cells: Jurkat
Assay: Jurkat-PD-1 Cell Binding High-Content Screening Assay (CBA)
Format: cell-based
Conditions: Jurkat cell line over-expressing human PD-1; PE-labeled PD-L1-Ig 20 nM final; read-out: Jurkat hPD1-PDL1 IC50
In short: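 Human PD-L1-Ig carrying a covalent PE label on its Ig tag serves as the probe, applied at 20 nM final to compound-treated (2 h, 37° C) Jurkat-hPD-1 cells in medium with 10% fetal calf serum. After one hour, fixation and nuclear staining precede high-content image analysis.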

T1 sequence (Q15116 25-288): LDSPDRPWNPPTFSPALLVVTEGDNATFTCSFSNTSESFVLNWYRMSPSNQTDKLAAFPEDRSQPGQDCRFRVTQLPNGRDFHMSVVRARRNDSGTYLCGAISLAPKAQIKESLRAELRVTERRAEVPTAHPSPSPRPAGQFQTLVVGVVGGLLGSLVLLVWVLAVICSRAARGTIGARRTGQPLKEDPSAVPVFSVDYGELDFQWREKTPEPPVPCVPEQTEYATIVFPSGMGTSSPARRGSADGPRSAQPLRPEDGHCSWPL

Row | Compound | IC50
1 | Cc1cccc(C[C@@H]2NC(=O)[C@H](CC(=O)O)NC(=O)[C@H](Cc3ccc(OCC(=O)O)cc3)NC(=O)[C@H](CCCNC(=N)N)NC(=O)CSC[C@@H](C(=O)N[C@@H](CCN)C(=O)NCCCCCCCCCCC(=O)O)NC(=O)[C@H](CO)NC(=O)[C@H](C(C)(C)O)NC(=O)[C@H](CC3CCCCC3)NC(=O)[C@H](CCN)NC(=O)[C@@H](CC(C)C)NC(=O)[C@H](CCCN)NC(=O)[C@H](Cc3ccc(OCC(=O)O)cc3)NC(=O)[C@H](Cc3ccc(-c4ccccc4)cc3)NC(=O)[C@H](Cc3ccc(OCC(=O)O)cc3)NC2=O)c1 [Compound 2171] ({CH2CO}-RY(Carboxymethyl)D[Phe(3-Me)]Y(Carboxymethyl)[Bip]Y(Carboxymethyl)[Orn][dL][Dab][Cha][Val(3-OH)]SC[Dab][Aun]-OH; thioether N-14) | 4.6 nM
2 | Cc1cccc(C[C@@H]2NC(=O)[C@H](CC(=O)O)NC(=O)[C@H](Cc3ccc(OCC(=O)O)cc3)NC(=O)[C@H](CN)NC(=O)CSC[C@@H](C(=O)N[C@H](C(=O)NCCCCCCCCCCC(=O)O)[C@H](C)N)NC(=O)[C@H](CO)NC(=O)[C@H](C(C)C)NC(=O)[C@H](CC3CCCCC3)NC(=O)[C@H](CCN)NC(=O)[C@@H](CC(C)C)NC(=O)[C@H](CCCN)NC(=O)[C@H](Cc3ccc(OCC(=O)O)cc3)NC(=O)[C@H](Cc3ccc(-c4ccccc4)cc3)NC(=O)[C@H](Cc3ccc(OCC(=O)O)cc3)NC2=O)c1 [Compound 2172] ({CH2CO}-[Dap]Y(Carboxymethyl)D[Phe(3-Me)]Y(Carboxymethyl)[Bip]Y(Carboxymethyl)[Orn][dL][Dab][Cha]VSC[Abu(3S-NH2)][Aun]-OH; thioether N-14) | 30.6 nM
3 | Cc1cccc(C[C@@H]2NC(=O)[C@H](CC(=O)O)NC(=O)[C@H](Cc3ccc(OCC(=O)O)cc3)NC(=O)[C@H](CN)NC(=O)CSC[C@@H](C(=O)N[C@@H](CCN)C(=O)NCCCCCCCCCCC(=O)O)NC(=O)[C@H]([C@H](C)N)NC(=O)[C@H](C(C)C)NC(=O)[C@H](CC3CCCCC3)NC(=O)[C@H](CCN)NC(=O)[C@@H](CC(C)C)NC(=O)[C@H](CCCN)NC(=O)[C@H](Cc3ccc(OCC(=O)O)cc3)NC(=O)[C@H](Cc3ccc(-c4ccccc4)cc3)NC(=O)[C@H](Cc3ccc(OCC(=O)O)cc3)NC2=O)c1 [Compound 2173] ({CH2CO}-[Dap]Y(Carboxymethyl)D[Phe(3-Me)]Y(Carboxymethyl)[Bip]Y(Carboxymethyl)[Orn][dL][Dab][Cha]V[Abu(3S-NH2)]C[Dab][Aun]-OH; thioether N-14) | 55 nM
4 | Cc1cccc(C[C@@H]2NC(=O)[C@H](CC(=O)O)NC(=O)[C@H](Cc3ccc(OCC(=O)O)cc3)NC(=O)[C@H](CN)NC(=O)CSC[C@@H](C(=O)N[C@@H](CCN)C(=O)NCCCCCCCCCCC(=O)O)NC(=O)[C@H](CO)NC(=O)[C@H]([C@H](C)N)NC(=O)[C@H](CC3CCCCC3)NC(=O)[C@H](CCN)NC(=O)[C@@H](CC(C)C)NC(=O)[C@H](CCCN)NC(=O)[C@H](Cc3ccc(OCC(=O)O)cc3)NC(=O)[C@H](Cc3ccc(-c4ccccc4)cc3)NC(=O)[C@H](Cc3ccc(OCC(=O)O)cc3)NC2=O)c1 [Compound 2174] ({CH2CO}-[Dap]Y(Carboxymethyl)D[Phe(3-Me)]Y(Carboxymethyl)[Bip]Y(Carboxymethyl)[Orn][dL][Dab][Cha][Abu(3S-NH2)]SC[Dab][Aun]-OH; thioether N-14) | 11.3 nM
5 | Cc1cccc(C[C@@H]2NC(=O)[C@H](CC(=O)O)NC(=O)[C@H](Cc3ccc(OCC(=O)O)cc3)NC(=O)[C@H](CN)NC(=O)CSC[C@@H](C(=O)N[C@@H](CCN)C(=O)NCCCCCCCCCCC(=O)O)NC(=O)[C@H](CO)NC(=O)[C@H](C(C)(C)O)NC(=O)[C@H](CC3CCC3)NC(=O)[C@H](CCN)NC(=O)[C@@H](CC(C)C)NC(=O)[C@H](CCCN)NC(=O)[C@H](Cc3ccc(OCC(=O)O)cc3)NC(=O)[C@H](Cc3ccc(-c4ccccc4)cc3)NC(=O)[C@H](Cc3ccc(OCC(=O)O)cc3)NC2=O)c1 [Compound 2175] ({CH2CO}-[Dap]Y(Carboxymethyl)D[Phe(3-Me)]Y(Carboxymethyl)[Bip]Y(Carboxymethyl)[Orn][dL][Dab][Cba][Val(3-OH)]SC[Dab][Aun]-OH; thioether N-14) | 10.8 nM
6 | Cc1cccc(C[C@@H]2NC(=O)[C@H](CC(=O)O)NC(=O)[C@H](Cc3ccc(OCC(=O)O)cc3)NC(=O)[C@H](C(C)(C)CCN)NC(=O)CSC[C@@H](C(=O)N[C@@H](CCN)C(=O)NCCCCCCCCCCCCC(=O)O)NC(=O)[C@H](CO)NC(=O)[C@H](C(C)(C)O)NC(=O)[C@H](CC3CCCCC3)NC(=O)[C@H](CCN)NC(=O)[C@@H](CC(C)C)NC(=O)[C@H](CCCN)NC(=O)[C@H](Cc3ccc(OCC(=O)O)cc3)NC(=O)[C@H](Cc3ccc(-c4ccccc4)cc3)NC(=O)[C@H](Cc3ccc(OCC(=O)O)cc3)NC2=O)c1 [Compound 2176] ({CH2CO}-[X5]Y(Carboxymethyl)D[Phe(3-Me)]Y(Carboxymethyl)[Bip]Y(Carboxymethyl)[Orn][dL][Dab][Cha][Val(3-OH)]SC[Dab]-{NH(CH2)12COOH}; thioether N-14) | 105 nM
7 | Cc1cccc(C[C@@H]2NC(=O)[C@H](CC(=O)O)NC(=O)[C@H](Cc3ccc(C(=O)O)cc3)NC(=O)[C@H](Cc3ccncc3)NC(=O)CSC[C@@H](C(=O)N[C@@H](CCN)C(=O)NCCCCCCCCCCC(=O)O)NC(=O)[C@H](CO)NC(=O)[C@H](C(C)(C)O)NC(=O)[C@H](CC3CCCCC3)NC(=O)[C@H](CCN)NC(=O)[C@@H](CC(C)C)NC(=O)[C@H](CCCN)NC(=O)[C@H](Cc3ccc(OCC(=O)O)cc3)NC(=O)[C@H](Cc3ccc(-c4ccccc4)cc3)NC(=O)[C@H](Cc3ccc(OCC(=O)O)cc3)NC2=O)c1 [Compound 2177] ({CH2CO}-[4Pal][Phe(4-COOH)]D[Phe(3-Me)]Y(Carboxymethyl)[Bip]Y(Carboxymethyl)[Orn][dL][Dab][Cha][Val(3-OH)]SC[Dab][Aun]-OH; thioether N-14) | 144 nM
8 | CCC[C@@H]1NC(=O)CSC[C@@H](C(=O)N[C@@H](CCN)C(=O)NCCCCCCCCCCC(=O)O)NC(=O)[C@H](CO)NC(=O)[C@H](C(C)(C)O)NC(=O)[C@H](CC2CCCCC2)NC(=O)[C@H](CCN)NC(=O)[C@@H](CC(C)C)NC(=O)[C@H](CCCN)NC(=O)[C@H](Cc2ccc(OCC(=O)O)cc2)NC(=O)[C@H](Cc2ccc(-c3ccccc3)cc2)NC(=O)[C@H](Cc2ccc(OCC(=O)O)cc2)NC(=O)[C@H](Cc2cccc(C)c2)NC(=O)[C@H](CC(=O)O)NC(=O)[C@H](Cc2ccc(C(=O)O)cc2)NC1=O [Compound 2178] ({CH2CO}-[Nva][Phe(4-COOH)]D[Phe(3-Me)]Y(Carboxymethyl)[Bip]Y(Carboxymethyl)[Orn][dL][Dab][Cha][Val(3-OH)]SC[Dab][Aun]-OH; thioether N-14) | 6.4 nM
9 | Cc1cccc(C[C@@H]2NC(=O)[C@H](CC(=O)O)NC(=O)[C@H](Cc3ccc(C(=O)O)cc3)NC(=O)[C@H](Cc3cccs3)NC(=O)CSC[C@@H](C(=O)N[C@@H](CCN)C(=O)NCCCCCCCCCCC(=O)O)NC(=O)[C@H](CO)NC(=O)[C@H](C(C)(C)O)NC(=O)[C@H](CC3CCCCC3)NC(=O)[C@H](CCN)NC(=O)[C@@H](CC(C)C)NC(=O)[C@H](CCCN)NC(=O)[C@H](Cc3ccc(OCC(=O)O)cc3)NC(=O)[C@H](Cc3ccc(-c4ccccc4)cc3)NC(=O)[C@H](Cc3ccc(OCC(=O)O)cc3)NC2=O)c1 [Compound 2179] ({CH2CO}-[2Thi][Phe(4-COOH)]D[Phe(3-Me)]Y(Carboxymethyl)[Bip]Y(Carboxymethyl)[Orn][dL][Dab][Cha][Val(3-OH)]SC[Dab][Aun]-OH; thioether N-14) | 22 nM
10 | Cc1cccc(C[C@@H]2NC(=O)[C@H](CC(=O)O)NC(=O)[C@H](Cc3ccc(OCC(=O)O)cc3)NC(=O)C3(CC3)NC(=O)CSC[C@@H](C(=O)N[C@@H](CCN)C(=O)NCCCCCCCCCCC(=O)O)NC(=O)[C@H](CO)NC(=O)[C@H](C(C)(C)O)NC(=O)[C@H](CC3CCCCC3)NC(=O)[C@H](CCN)NC(=O)[C@@H](CC(C)C)NC(=O)[C@H](CCCN)NC(=O)[C@H](Cc3ccc(OCC(=O)O)cc3)NC(=O)[C@H](Cc3ccc(-c4ccccc4)cc3)NC(=O)[C@H](Cc3ccc(OCC(=O)O)cc3)NC2=O)c1 [Compound 2180] ({CH2CO}-[Ac3c]Y(Carboxymethyl)D[Phe(3-Me)]Y(Carboxymethyl)[Bip]Y(Carboxymethyl)[Orn][dL][Dab][Cha][Val(3-OH)]SC[Dab][Aun]-OH; thioether N-14) | 119 nM
11 | COc1ccc(C[C@@H]2NC(=O)CSC[C@@H](C(=O)N[C@@H](CCN)C(=O)NCCCCCCCCCCC(=O)O)NC(=O)[C@H](CO)NC(=O)[C@H](C(C)(C)O)NC(=O)[C@H](CC3CCCCC3)NC(=O)[C@H](CCN)NC(=O)[C@@H](CC(C)C)NC(=O)[C@H](CCCN)NC(=O)[C@H](Cc3ccc(OCC(=O)O)cc3)NC(=O)[C@H](Cc3ccc(-c4ccccc4)cc3)NC(=O)[C@H](Cc3ccc(OCC(=O)O)cc3)NC(=O)[C@H](Cc3cccc(C)c3)NC(=O)[C@H](CC(=O)O)NC(=O)[C@H](Cc3ccc(OCC(=O)O)cc3)NC2=O)cc1 [Compound 2181] ({CH2CO}-Y(Me)Y(Carboxymethyl)D[Phe(3-Me)]Y(Carboxymethyl)[Bip]Y(Carboxymethyl)[Orn][dL][Dab][Cha][Val(3-OH)]SC[Dab][Aun]-OH; thioether N-14) | 17.7 nM
12 | Cc1cccc(C[C@@H]2NC(=O)[C@H](CC(=O)O)NC(=O)[C@H](Cc3ccc(OCC(=O)O)cc3)NC(=O)[C@H](Cc3cccs3)NC(=O)CSC[C@@H](C(=O)N[C@@H](CCN)C(=O)NCCCCCCCCCCC(=O)O)NC(=O)[C@H](CO)NC(=O)[C@H](C(C)(C)O)NC(=O)[C@H](CC3CCCCC3)NC(=O)[C@H](CCN)NC(=O)[C@@H](CC(C)C)NC(=O)[C@H](CCCN)NC(=O)[C@H](Cc3ccc(OCC(=O)O)cc3)NC(=O)[C@H](Cc3ccc(-c4ccccc4)cc3)NC(=O)[C@H](Cc3ccc(OCC(=O)O)cc3)NC2=O)c1 [Compound 2182] ({CH2CO}-[2Thi]Y(Carboxymethyl)D[Phe(3-Me)]Y(Carboxymethyl)[Bip]Y(Carboxymethyl)[Orn][dL][Dab][Cha][Val(3-OH)]SC[Dab][Aun]-OH; thioether N-14) | 15.6 nM
